{"source": "ChEMBL document CHEMBL1149449", "about": "(Bioorg Med Chem Lett, 2006)", "key": {"[1]": {"test_system": "Human immunodeficiency virus 1", "assay": "Antiviral activity in cells infected with wild-type HIV1", "assay_type": "functional", "details": "read-out: CIC95"}, "[2]": {"molecular_target": "Human immunodeficiency virus type 1 protease (Human immunodeficiency virus 1, UniProt Q72874)", "assay": "Inhibitory activity against isolated wild-type HIV1 protease"}, "[3]": {"molecular_target": "Human immunodeficiency virus type 1 protease (Human immunodeficiency virus 1) (UniProt Q72874)", "assay": "Ratio of inhibitory effect against HIV1 protease in cellular over isolated enzyme assay", "assay_type": "functional"}, "[4]": {"test_system": "Human immunodeficiency virus 1", "assay": "Antiviral activity in cells infected with wild-type HIV1 4X mutant", "assay_type": "functional", "details": "Human immunodeficiency virus 1, 4X; read-out: CIC95"}, "[5]": {"test_system": "Human immunodeficiency virus 1", "assay": "Antiviral activity in cells infected with wild-type HIV1 H93B in presence of NHS", "assay_type": "functional", "details": "Human immunodeficiency virus 1, H93B; read-out: CIC95"}, "[6]": {"test_system": "Human immunodeficiency virus 1", "assay": "Antiviral activity in cells infected with wild-type HIV1 1002-60C mutant", "assay_type": "functional", "details": "Human immunodeficiency virus 1, 1002-60C; read-out: CIC95"}, "[7]": {"test_system": "Human immunodeficiency virus 1", "assay": "Antiviral activity in cells infected with wild-type HIV1 H93B in presence of FBS", "assay_type": "functional", "details": "Human immunodeficiency virus 1, H93B; read-out: CIC95"}, "[8]": {"test_system": "Human immunodeficiency virus 1", "assay": "Antiviral activity in cells infected with wild-type HIV1 1026-60C mutant", "assay_type": "functional", "details": "Human immunodeficiency virus 1, 1026-60C; read-out: CIC95"}, "[9]": {"test_system": "Human immunodeficiency virus 1", "assay": "Antiviral activity in cells infected with wild-type HIV1 1002-60C mutant in presence of NHS", "assay_type": "functional", "details": "Human immunodeficiency virus 1, 1002-60C; read-out: CIC95"}, "[10]": {"test_system": "Human immunodeficiency virus 1", "assay": "Antiviral activity in cells infected with wild-type HIV1 NL4-3 in presence of FBS", "assay_type": "functional", "details": "Human immunodeficiency virus 1, NL4-3; read-out: CIC95"}, "[11]": {"test_system": "Human immunodeficiency virus 1", "assay": "Antiviral activity in cells infected with wild-type HIV1 1026-60C mutant in presence of NHS", "assay_type": "functional", "details": "Human immunodeficiency virus 1, 1026-60C; read-out: CIC95"}, "[12]": {"test_system": "Human immunodeficiency virus 1", "assay": "Antiviral activity in cells infected with wild-type HIV1 4X mutant in presence of NHS", "assay_type": "functional", "details": "Human immunodeficiency virus 1, 4X; read-out: CIC95"}, "[13]": {"test_system": "Human immunodeficiency virus 1", "assay": "Antiviral activity in cells infected with wild-type HIV1 NL4-3 in presence of NHS", "assay_type": "functional", "details": "Human immunodeficiency virus 1, NL4-3; read-out: CIC95"}}, "data": [{"molecule": "CC(C)(C)CC(=O)N[C@@H](Cc1ccccc1)[C@@H](O)C[C@]1(Cc2ccccc2)N=CC(C2c3ccccc3[C@H]3NC(=O)OC23)=C1O", "note": "(some centres undefined)", "values": [{"measurement": "IC95", "setting": "[1]", "value": 3.12, "unit": "µM"}, {"measurement": "IC50", "setting": "[2]", "value": 0.096, "unit": "µM"}, {"measurement": "Ratio CIC95/IC50", "setting": "[3]", "value": 32.5}]}, {"molecule": "NC(=O)O[C@@H]1Cc2ccccc2[C@@H]1C1=C(O)[C@](Cc2ccccc2)(C[C@H](O)[C@H](Cc2ccccc2)NC(=O)O[C@H]2CCOC2)N=C1", "values": [{"measurement": "IC95", "setting": "[1]", "value": 0.25, "unit": "µM"}, {"measurement": "IC50", "setting": "[2]", "value": 0.002, "unit": "µM"}, {"measurement": "Ratio CIC95/IC50", "setting": "[3]", "value": 125}]}, {"molecule": "NC(=O)C[C@H]1CC(C2=C(O)[C@](Cc3ccccc3)(C[C@H](O)[C@H](Cc3ccccc3)NC(=O)O[C@H]3CCOC3)N=C2)c2ccccc21", "note": "(some centres undefined)", "values": [{"measurement": "IC95", "setting": "[4]", "value": 0.625, "unit": "µM"}, {"measurement": "IC95", "setting": "[5]", "value": 1.25, "unit": "µM"}, {"measurement": "IC95", "setting": "[6]", "value": 1.25, "unit": "µM"}, {"measurement": "IC95", "setting": "[1]", "value": 0.781, "unit": "µM"}, {"measurement": "IC95", "setting": "[7]", "value": 1.25, "unit": "µM"}, {"measurement": "IC95", "setting": "[8]", "value": 0.312, "unit": "µM"}, {"measurement": "IC95", "setting": "[9]", "value": 2.5, "unit": "µM"}, {"measurement": "IC95", "setting": "[10]", "value": 0.312, "unit": "µM"}, {"measurement": "IC95", "setting": "[11]", "value": 0.625, "unit": "µM"}, {"measurement": "IC95", "setting": "[12]", "value": 1.25, "unit": "µM"}, {"measurement": "IC95", "setting": "[13]", "value": 0.625, "unit": "µM"}]}, {"molecule": "CC(C)(C)CC(=O)N[C@@H](Cc1ccccc1)[C@@H](O)C[C@]1(Cc2ccccc2)N=CC(C2C[C@H](CC(N)=O)c3ccccc32)=C1O", "note": "(some centres undefined)", "values": [{"measurement": "IC95", "setting": "[1]", "value": 12.5, "unit": "µM"}, {"measurement": "IC50", "setting": "[2]", "value": "> 0.25", "unit": "µM"}]}, {"molecule": "O=C1N[C@@H]2c3ccccc3C(C3=C(O)[C@](Cc4ccccc4)(C[C@H](O)[C@H](Cc4ccccc4)NC(=O)O[C@H]4CCOC4)N=C3)C2O1", "note": "(some centres undefined)", "values": [{"measurement": "IC95", "setting": "[4]", "value": 0.156, "unit": "µM"}, {"measurement": "IC95", "setting": "[5]", "value": 0.625, "unit": "µM"}, {"measurement": "IC95", "setting": "[6]", "value": 1.25, "unit": "µM"}, {"measurement": "IC95", "setting": "[1]", "value": 0.4, "unit": "µM"}, {"measurement": "IC50", "setting": "[2]", "value": 0.00044, "unit": "µM"}, {"measurement": "IC95", "setting": "[7]", "value": 0.625, "unit": "µM"}, {"measurement": "IC95", "setting": "[8]", "value": 0.312, "unit": "µM"}, {"measurement": "IC95", "setting": "[9]", "value": 1.25, "unit": "µM"}, {"measurement": "IC95", "setting": "[10]", "value": 0.625, "unit": "µM"}, {"measurement": "IC95", "setting": "[11]", "value": 0.312, "unit": "µM"}, {"measurement": "IC95", "setting": "[12]", "value": 0.312, "unit": "µM"}, {"measurement": "Ratio CIC95/IC50", "setting": "[3]", "value": 909}, {"measurement": "IC95", "setting": "[13]", "value": 0.625, "unit": "µM"}]}, {"molecule": "O=C(N[C@@H](Cc1ccccc1)[C@@H](O)C[C@]1(Cc2ccccc2)N=CC([C@@H]2CNC(=O)c3ccccc32)=C1O)O[C@H]1CCOC1", "values": [{"measurement": "IC95", "setting": "[1]", "value": 0.781, "unit": "µM"}, {"measurement": "IC50", "setting": "[2]", "value": 0.0057, "unit": "µM"}, {"measurement": "Ratio CIC95/IC50", "setting": "[3]", "value": 137}]}, {"molecule": "CC(C)(C)NC(=O)[C@@H]1CN(Cc2cccnc2)CCN1C[C@@H](O)C[C@@H](Cc1ccccc1)C(=O)N[C@H]1c2ccccc2C[C@H]1O", "values": [{"measurement": "IC95", "setting": "[4]", "value": 0.1, "unit": "µM"}, {"measurement": "IC95", "setting": "[5]", "value": 0.025, "unit": "µM"}, {"measurement": "IC95", "setting": "[6]", "value": 0.4, "unit": "µM"}, {"measurement": "IC95", "setting": "[1]", "value": 0.025, "unit": "µM"}, {"measurement": "IC95", "setting": "[7]", "value": 0.05, "unit": "µM"}, {"measurement": "IC95", "setting": "[8]", "value": 0.4, "unit": "µM"}, {"measurement": "IC95", "setting": "[9]", "value": 0.4, "unit": "µM"}, {"measurement": "IC95", "setting": "[10]", "value": 0.05, "unit": "µM"}, {"measurement": "IC95", "setting": "[11]", "value": 0.4, "unit": "µM"}, {"measurement": "IC95", "setting": "[12]", "value": 0.1, "unit": "µM"}, {"measurement": "IC95", "setting": "[13]", "value": 0.05, "unit": "µM"}]}, {"molecule": "CC(C)(C)OC(=O)N[C@@H](Cc1ccccc1)[C@@H](O)C[C@]1(Cc2ccccc2)N=CC(C2C[C@H](CC(N)=O)c3ccccc32)=C1O", "note": "(some centres undefined)", "values": [{"measurement": "IC95", "setting": "[1]", "value": "> 0.4", "unit": "µM"}, {"measurement": "IC50", "setting": "[2]", "value": 0.0205, "unit": "µM"}]}, {"molecule": "CC(C)(C)OC(=O)N[C@@H](Cc1ccccc1)[C@@H](O)C[C@]1(Cc2ccccc2)N=CC(C2c3ccccc3[C@H]3NC(=O)OC23)=C1O", "note": "(some centres undefined)", "values": [{"measurement": "IC95", "setting": "[4]", "value": 2.5, "unit": "µM"}, {"measurement": "IC95", "setting": "[5]", "value": 0.312, "unit": "µM"}, {"measurement": "IC95", "setting": "[6]", "value": 2.5, "unit": "µM"}, {"measurement": "IC95", "setting": "[1]", "value": 0.2, "unit": "µM"}, {"measurement": "IC50", "setting": "[2]", "value": 0.0025, "unit": "µM"}, {"measurement": "IC95", "setting": "[7]", "value": 0.156, "unit": "µM"}, {"measurement": "IC95", "setting": "[8]", "value": 0.625, "unit": "µM"}, {"measurement": "IC95", "setting": "[9]", "value": 10, "unit": "µM"}, {"measurement": "IC95", "setting": "[10]", "value": 0.156, "unit": "µM"}, {"measurement": "IC95", "setting": "[11]", "value": 1.25, "unit": "µM"}, {"measurement": "IC95", "setting": "[12]", "value": 5, "unit": "µM"}, {"measurement": "Ratio CIC95/IC50", "setting": "[3]", "value": 80}, {"measurement": "IC95", "setting": "[13]", "value": 0.625, "unit": "µM"}]}, {"molecule": "O=C(N[C@@H](Cc1ccccc1)[C@@H](O)C[C@]1(Cc2ccccc2)N=CC([C@H]2c3ccccc3C[C@H]2O)=C1O)O[C@H]1CCOC1", "values": [{"measurement": "IC95", "setting": "[4]", "value": 0.625, "unit": "µM"}, {"measurement": "IC95", "setting": "[5]", "value": 0.156, "unit": "µM"}, {"measurement": "IC95", "setting": "[6]", "value": 1.25, "unit": "µM"}, {"measurement": "IC95", "setting": "[1]", "value": 0.1, "unit": "µM"}, {"measurement": "IC50", "setting": "[2]", "value": 0.002, "unit": "µM"}, {"measurement": "IC95", "setting": "[7]", "value": 0.156, "unit": "µM"}, {"measurement": "IC95", "setting": "[8]", "value": 0.156, "unit": "µM"}, {"measurement": "IC95", "setting": "[9]", "value": 1.25, "unit": "µM"}, {"measurement": "IC95", "setting": "[10]", "value": 0.078, "unit": "µM"}, {"measurement": "IC95", "setting": "[11]", "value": 0.312, "unit": "µM"}, {"measurement": "IC95", "setting": "[12]", "value": 1.25, "unit": "µM"}, {"measurement": "Ratio CIC95/IC50", "setting": "[3]", "value": 50}, {"measurement": "IC95", "setting": "[13]", "value": 0.156, "unit": "µM"}]}]}
